Reference: patent US20230183193A1, “4-DIFLUOROMETHYL BENZOYL AMIDES WITH HERBICIDAL ACTION” (BAYER CROPSCIENCE AKTIENGESELLSCHAFT, priority 2017, published 2023)

Tests used:
Assay type in all cases: in vivo
Stellaria media [1] = experiment: Post-emergence herbicidal action, STEME; settings: 80 g/ha, Table D
Outline: (§1)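 Greenhouse-grown plants were sprayed at the one-leaf stage, 2–3 weeks after sowing. Damage was scored visually after about 3 weeks against untreated controls, as % action (100% = dead, 0% = like control).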

Setaria viridis [2] = experiment: Post-emergence herbicidal action, SETVI; settings: 80 g/ha, Table C
Outline: as §1

Avena fatua [3] = experiment: Post-emergence herbicidal action, AVEFA; settings: 80 g/ha, Table C
Experimental: (§2) Seeds of monocotyledonous and dicotyledonous weed and crop plants are laid out in sandy loam soil in wood-fiber pots, covered with soil and cultivated in a greenhouse under good growth conditions. 2 to 3 weeks after sowing, the test plants are treated at the one-leaf stage. The compounds of the invention, formulated in the form of wettable powders (WP) or as emulsion concentrates (EC), are then sprayed onto the green parts of the plants in the form of an aqueous suspension or emulsion at a water application rate equating to […], with addition of 0.2% wetting agent. After the test plants have been left to stand in the greenhouse under optimal growth conditions for about 3 weeks, the action of the preparations is assessed visually in comparison to untreated controls (herbicidal action in percent (%): 100% activity=the plants have died, 0% activity=like control plants). […] At the same time, inventive compounds leave Gramineae crops such as barley, wheat, rye, millet/sorghum, corn or rice virtually undamaged when applied post-emergence, even at high active compound dosages. In addition, some substances are also harmless to dicotyledonous crops such as soya, cotton, oilseed rape, sugar beet or potatoes. Some of the compounds according to the invention have high selectivity and are therefore suitable for controlling unwanted vegetation in agricultural crops by the post-emergence method. The data of Tables C and D below illustrate, in an exemplary manner, the […] herbicidal action of the compounds according to the invention, the herbicidal activity being stated in percent.
(§3) For comparison, the herbicidal activity of numerous compounds according to the invention was tested with the structurally closest compounds known from the documents WO 2011/035874, WO 2012/028579 and WO 2012/126932, by the pre- and post-emergence method.

Alopecurus myosuroides [4] = experiment: Post-emergence herbicidal action, ALOMY; settings: 80 g/ha, Table C
Experimental: as §2, §3

Viola tricolor [5] = experiment: Pre-emergence herbicidal action, VIOTR; settings: dosage 320 g/ha, scored visually after 3 weeks vs untreated controls
Outline: (§4)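 Percent herbicidal activity rated by eye 3 weeks after pre-emergence soil-surface application, compared with untreated pots. Seeds sat under sandy loam; sprays carried 0.2% wetting agent.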

Amaranthus retroflexus [6] = experiment: Post-emergence herbicidal action, AMARE; settings: 80 g/ha, Table D
Outline: as §1

ECHCG = experiment: Post-emergence herbicidal action, ECHCG; settings: 80 g/ha, Table C
Outline: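 Weed and crop plants grown in sandy loam in the greenhouse, treated at the one-leaf stage 2–3 weeks after sowing. Damage scored visually after about 3 weeks vs untreated controls (0% = control, 100% = dead).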

Avena fatua [7] = experiment: Pre-emergence herbicidal action, AVEFA; settings: dosage 320 g/ha, scored visually after 3 weeks vs untreated controls
Outline: as §4

Amaranthus retroflexus [8] = experiment: Pre-emergence herbicidal action, AMARE; settings: dosage 320 g/ha, scored visually after 3 weeks vs untreated controls
Outline: as §4

Abutilon theophrasti [9] = experiment: Pre-emergence herbicidal action, ABUTH; settings: dosage 320 g/ha, scored visually after 3 weeks vs untreated controls
Outline: as §4

Matricaria inodora = experiment: Pre-emergence herbicidal action, MATIN; settings: dosage 320 g/ha, scored visually after 3 weeks vs untreated controls
Outline: as §4

Abutilon theophrasti [10] = experiment: Post-emergence herbicidal action, ABUTH; settings: 80 g/ha, Table D
Outline: as §1

Pharbitis purpureum = experiment: Post-emergence herbicidal action, PHBPU; settings: 80 g/ha, Table D
Outline: as §1

Cyperus serotinus = experiment: Pre-emergence herbicidal action, CYPES; settings: dosage 320 g/ha, scored visually after 3 weeks vs untreated controls
Outline: as §4

Stellaria media [11] = experiment: Pre-emergence herbicidal action, STEME; settings: dosage 320 g/ha, scored visually after 3 weeks vs untreated controls
Outline: as §4

Alopecurus myosuroides [12] = experiment: Pre-emergence herbicidal action, ALOMY; settings: dosage 320 g/ha, scored visually after 3 weeks vs untreated controls
Outline: as §4

Viola tricolor [13] = experiment: Post-emergence herbicidal action, VIOTR; settings: 80 g/ha, Table D
Outline: as §1

Setaria viridis [14] = experiment: Pre-emergence herbicidal action, SETVI; settings: dosage 320 g/ha, scored visually after 3 weeks vs untreated controls
Outline: as §4

SMILES | Herbicidal activity STEME (Stellaria media [1]) | herbicidal activity SETVI (Setaria viridis [2]) | herbicidal activity AVEFA (Avena fatua [3]) | herbicidal activity ALOMY (Alopecurus myosuroides [4]) | herbicidal activity VIOTR (Viola tricolor [5]) | herbicidal activity AMARE (Amaranthus retroflexus [6]) | Herbicidal activity ECHCG (ECHCG) | herbicidal activity AVEFA (Avena fatua [7]) | herbicidal activity AMARE (Amaranthus retroflexus [8]) | herbicidal activity ABUTH (Abutilon theophrasti [9]) | herbicidal activity MATIN (Matricaria inodora) | herbicidal activity ABUTH (Abutilon theophrasti [10]) | Herbicidal activity PHBPU (Pharbitis purpureum) | herbicidal activity CYPES (Cyperus serotinus) | Herbicidal activity STEME (Stellaria media [11]) | herbicidal activity ALOMY (Alopecurus myosuroides [12]) | herbicidal activity VIOTR (Viola tricolor [13]) | herbicidal activity SETVI (Setaria viridis [14])
CCn1nnnc1NC(=O)c1ccc(C(F)F)c(S(=O)(=O)CC)c1C [Example 2-6] | 100% | 90% | 100% | 80% | 100% | 90% | 90% | 100% | 100% | 100% | 100% | 100% | 100% | 100% | 100% | 100% | 100% | 100%
CCSc1c(C(F)F)ccc(C(=O)Nc2ncnn2C)c1Br [Example 4-64] | 100% | 100% | 100% | 100% | 100% | 100% | 100% | 100% | 100% | 100% | 100% | 100% | 100% |  | 100% | 90% | 100% | 100%
CCS(=O)(=O)c1c(C(F)F)ccc(C(=O)Nc2nnc(C)o2)c1Br [Example 7-64] | 90% | 100% | 100% | 90% | 100% | 100% | 100% | 100% |  | 100% | 100% | 100% | 100% | 100% | 100% | 100% | 90% | 100%
CCCn1nnnc1NC(=O)c1ccc(C(F)F)c(S(C)(=O)=O)c1C [Example 3-3] | 90% | 90% | 90% | 90% | 100% | 80% | 90% | 100% | 100% | 100% | 100% | 90% | 90% | 90% |  | 90% | 100% | 100%
CCn1nnnc1NC(=O)c1ccc(C(F)F)c(SC)c1C [Example 2-1] | 100% | 90% | 100% | 90% | 100% | 100% | 90% | 100% | 100% | 100% | 100% | 90% | 100% |  |  | 90% | 100% | 100%
CCCn1nnnc1NC(=O)c1ccc(C(F)F)c(SC)c1C [Example 3-1] | 100% | 100% | 100% | 90% | 100% | 100% | 100% | 100% | 100% | 100% | 100% | 100% | 90% |  | 100% | 100% | 100% | 100%
CCn1nnnc1NC(=O)c1ccc(C(F)F)c([S+](C)[O-])c1C (stereo not shown) [Example 2-2] | 100% | 100% | 90% | 90% | 100% | 80% | 90% | 100% | 100% | 100% | 100% | 90% | 90% | 90% |  | 100% | 100% | 100%
CCS(=O)(=O)c1c(C(F)F)ccc(C(=O)Nc2nnnn2C)c1I [Example 1-78] | 100% | 100% | 80% | 90% | 100% | 100% | 100% | 100% | 100% | 100% | 100% | 80% | 100% | 100% |  | 100% | 90% | 100%
